Where two headings read alike, the source gives them in different places.
Legend:
Type in all cases: in vivo
[1] = test system: Winter wheat (cv. Keitum); assay: Biostimulant effect of seed coating on winter wheat (greenhouse, root scans)
Description: [table] Table 13. Biostimulant effect of ammonium pelargonate on winter wheat (cv. Keitum) 14 days after sowing

Leptosphaeria maculans = assay: Seed treatment lab trial against Leptosphaeria maculans in oilseed rape seedlings; details: for Emax: Plenodomus lingam, in Brassica napus, 144 h, 6 days after inoculation, read-out: % Efficacy
Description: [table] Table 8: Efficacy assessment of fatty acids in seed treatment of Leptosphaeria maculans in oilseed rape (variety Helga)

[2] = test system: Root knot nematode (Meloidogyne graminicola); assay: Root knot nematode gall development on wheat roots after treatment; details: foliar spraying, stock solution 200 x diluted; 400 J2 per plant 24 hours after treatment; 14 days after inoculation
Procedure: DISEASE/PEST: Root knot nematode (Meloidogyne graminicola) CROP: Triticum aestivum APPLICATION: Foliar application EXPERIMENT/TRIAL PROTOCOL: After seed germination, wheat plants were grown individually for 2 weeks in a PVC tube (18 cm height, 3 cm diameter) filled with a substrate of sand and a water-absorbing polymer (DCM Aquaperla). Plants were grown at 24 °C and supplied with Hoagland solution and water 3 times per week. They were treated after 2 weeks. Twenty-four hours after treatment they were inoculated with 400 nematode juveniles (second stage; J2) per plant. 8 individual plants were analyzed per treatment. Evaluation of nematode infection was done 14 days after inoculation. Development of galls on the roots was microscopically observed and counted. No females were observed yet at this early time point, in any of the treatments. The number of galls was reduced in the […], pelargonic acid ([…] decanoic acid (pm4) treated plants. Azelaic acid (pm3) had no effect on gall numbers in the used concentration. FORMULATION USED: […] PM1 is already formulated.

Fusarium culmorum = assay: whole plant or invertebrate; details: for Emax: Fusarium culmorum, in Triticum aestivum, 144 h, read-out: % Efficacy
Spodoptera exigua = assay: S. exigua survival, larval weight and leaf damage on pea plants after foliar spray; parameters: key to plant damage (1 to 5 scale): 0=no damage or no sucking observed; 1=some damage or some sucking observed; 3=half leaf eaten or half of aphids sucking the leaf; 5=no leaf left or all insects sucking and reproducing; details: 0.016 g in 5 mL water with 0.25% tween 20, foliar
Procedure: DISEASE/PEST: Spodoptera exigua CROP: pea plants (Pisum sativum) APPLICATION: FOLIAR EXPERIMENT/TRIAL PROTOCOL: Peas were grown in pots in the greenhouse (4 plants/pot). […] Plants were sprayed with a small handheld sprayer. 5 ml of spraying volume was applied. First instar (L1) Spodoptera larvae were added to the plants 24h after the treatment. Plant damage, larval survival and larval weight were followed up for 12 days. […] Table 4. Effect on survival and leaf damage of S. exigua on P. sativum.

[3] = seed coating 2 L/mt, 14 days after sowing
[4] = seed coating 2 L/mt, 14 days after sowing, relative to untreated check

**Q.** CCCCCCCCC(=O)O.N [Ammonium pelargonate] was tested. Which “root length, surface and volume, tips and forks per plant” value ([1]; coated seeds compared with untreated seedlings) did it give?
**A.** Seeds coated with ammonium pelargonate showed an increase in root length, surface and volume and an increase in tips and forks per plant. (Table 12)

**Q.** And the “Forks (#/plant)” value [1, 3]?
**A.** 330.70 #/plant

**Q.** And the “Fresh weight (g/plant)” value [1, 3]?
**A.** 0.53 g/plant

**Q.** And the “Plant height (cm)” value [1, 3]?
**A.** 22.5 cm

**Q.** And the “Root diameter (mm)” value [1, 3]?
**A.** 0.27 mm

**Q.** What about the “Root length (cm)” value [1, 3] of the same molecule?
**A.** 142.1 cm

**Q.** What about the “Root surface (cm^2)” value [1, 3] of the same molecule?
**A.** 11.90 cm^2

**Q.** And the “Root volume (cm^3)” value [1, 3]?
**A.** 0.08 cm^3

**Q.** And the “Tillers (#/plant)” value [1, 3]?
**A.** 0.40 #/plant

**Q.** And the “Tips (#/plant)” value [1, 3]?
**A.** 1585.20 #/plant

**Q.** And the “Forks (%UNCK)” value [1, 4]?
**A.** 146.65 %UNCK

**Q.** What about the “Fresh weight (%UNCK)” value [1, 4] of the same molecule?
**A.** 99.81 %UNCK

**Q.** And the “Plant height (%UNCK)” value [1, 4]?
**A.** 100.9 %UNCK

**Q.** What about the “Root diameter (%UNCK)” value [1, 4] of the same molecule?
**A.** 95.08 %UNCK

**Q.** And the “Root length (%UNCK)” value [1, 4]?
**A.** 131.5 %UNCK

**Q.** What about the “Root surface (%UNCK)” value [1, 4] of the same molecule?
**A.** 124.21 %UNCK

**Q.** And the “Root volume (%UNCK)” value [1, 4]?
**A.** 117.23 %UNCK

**Q.** And the “Tips (%UNCK)” value [1, 4]?
**A.** 120.36 %UNCK

**Q.** Which results are given for O=C(O)CCCCCCCC(=O)O [Azaleic acid, Azelaic acid]?
**A.** Emax (Leptosphaeria maculans; seed treatment 1.52 g/ton): 100%; Emax (Leptosphaeria maculans; seed treatment 2.28 g/ton): 100%; Emax (Leptosphaeria maculans; seed treatment 3.04 g/ton): 100%; Emax (Leptosphaeria maculans; seed treatment 4.56 g/ton): 80%; Emax (Leptosphaeria maculans; seed treatment 6.08 g/ton): 80%; Emax (Leptosphaeria maculans; seed treatment 7.60 g/ton): 80%; number of galls [2]: no effect

**Q.** Which Emax (Leptosphaeria maculans; seed treatment 7.60 g/ton) does the source give for CCCCCCCC(=O)O [Caprylic acid, caprylic acid] here?
**A.** 80%

**Q.** What about the Emax (Fusarium culmorum; seed treatment 6.08 g/ton) of the same molecule?
**A.** 80%

**Q.** What about the Emax (Fusarium culmorum; seed treatment 7.60 g/ton) of the same molecule?
**A.** 80%

**Q.** What about the number of galls [2] of the same molecule?
**A.** reduced

**Q.** How did the “Larval weight at day 12” value (Spodoptera exigua; L1 larvae added 24h after treatment) turn out when CCCCCCCCCC(=O)O [Decanoic acid, decanoic acid] was run?
**A.** 196 mg

**Q.** What about the “Number of larvae after 12 days” value (Spodoptera exigua; L1 larvae added 24h after treatment, 22 larvae at start) of the same molecule?
**A.** 18

**Q.** What about the “plant damage (1 to 5 scale)” value (Spodoptera exigua; followed up for 12 days) of the same molecule?
**A.** 1

**Q.** And the Emax (Leptosphaeria maculans; seed treatment 2.28 g/ton)?
**A.** 80%

**Q.** What about the Emax (Fusarium culmorum; seed treatment 4.56 g/ton) of the same molecule?
**A.** 60%

**Q.** What about the Emax (Fusarium culmorum; seed treatment 6.08 g/ton) of the same molecule?
**A.** 60%

**Q.** What about the Emax (Fusarium culmorum; seed treatment 7.60 g/ton) of the same molecule?
**A.** 80%

**Q.** What about the number of galls [2] of the same molecule?
**A.** reduced

**Q.** Ammonium percholate was tested. Which “% efficacy” value (Leptosphaeria maculans; in vivo) did it give?
**A.** 70%

**Q.** What about the “% efficacy” value (Fusarium culmorum; in vivo) of the same molecule?
**A.** 60%

Source: patent publication EP4501112A1, “PLANT DEFENSE ELICITORS” (Globachem NV, priority 2023, dated 2025)
